Reference: patent US5153201A, “Condensed thiazole compounds and use as pharmaceuticals” (Takeda Chemical Industries, Ltd., priority 1990, dated 1992)

Tested on: excitatory behavior induced by spinal intrathecal injection of FeCl2 in mice
Assay: Effects of drugs on the excitatory behavior induced by spinal intrathecal injection of FeCl2 in mice
Format: in vivo
Details: for Percent inhibition (%): inhibition of mean behavioral score versus saline, 100 mg/kg orally 30 min. prior to FeCl2 injection, mice; for Average score, administration of compound (100 mg/kg): male Slc:ICP mice (5 weeks), 100 mg/kg orally 30 min. prior to FeCl2 (5 μl of 50 mM, intrathecal), observed 15 min. to 1 hr., score 0 normal to 5 death
Protocol: Effects of drugs on the excitatory behavior induced by spinal intrathecal injection of FeCl2 in mice Male Slc:ICP mice (5 weeks) were used. Each group consisted of 10 mice. 5 μl of 50 mM FeCl2 in saline was injected into spinal subarchnoid space between the 1st sacral and the 6th lumbar segment, the behavioral responses were observed from 15 min. to 1 hr. after the intrathecal injection of FeCl2 and scored as follows. |Score Behavioral responses |0: normal (no abnormal behavior) |1: vigorously biting lower abdomen or lower | extremities |2: a) extremely biting lower body with rolling | b) hyperreactivity and […] to external stimuli | c) tremor | at least one of above three behavioral changes were | observed |3: clonic convulsion |4: tonic convulsion or paralysis of lower extremities. |5: death The test compounds (100 mg/kg) were orally administered 30 min. prior to FeCl2 injection.

| Structure (SMILES) | Percent inhibition (%) | Average score, administration of compound (100 mg/kg) |
| --- | --- | --- |
| COc1cccc(C=Cc2nc3c(s2)NCCC3)c1OC [Example 1, 2-(2,3-Dimethoxystyryl)-4,5,6,7-tetrahydrothiazolo[5,4-b]pyridine] | 82.6 | 0.8 |
| Cc1ccc(-c2nc3c(s2)NCCC3)cc1N [Example 2, 2-(3-Amino-4-methylphenyl)-4,5,6,7-tetrahydrothiazolo[5,4-b]pyridine] | 85.1 | 0.7 |
| Cc1ccc(-c2nc3c(s2)NCCC3)cc1N.Cl.Cl [Example 3, 2-(3-Amino-4-methylphenyl)-4,5,6,7-tetrahydrothiazolo[5,4-b]pyridine dihydrochloride] | 80.9 | 0.9 |
| Cl.Cl.Cn1cnc(C=Cc2nc3c(s2)NCCC3)c1 [Example 5, 2-{2-(1-Methylimidazole-4-yl)ethenyl}-4,5,6,7-tetrahydrothiazolo[5,4-b]pyridine dihydrochloride] | 91.3 | 0.4 |
| CCn1cc(C=Cc2nc3c(s2)NCCC3)nc1-c1ccccc1 [Example 6, 2-{2-(1-Ethyl-2-phenylimidazole-4-yl)ethenyl}-4,5,6,7-tetrahydrothiazolo[5,4-b]pyridine] | 97.9 | 0.1 |
